Converted amounts (≈) assume the structure as drawn. The source made the active and inactive calls. The calls are words filed in the database; no cut-off is given here.

The test system of experiment [1] is Bacillus subtilis. As to the kind of experiment: Effect on Bacillus subtilis in plate diffusion test; + indicates clearance zones. Type of experiment: functional, organism-based.
In experiment [2] the test system is Bacillus subtilis. Description: Minimum inhibitory concentration against Bacillus subtilis. The experiment is classed as functional.
Experiment [3] concerns Bacillus subtilis. Description: Effect on Bacillus subtilis in plate diffusion test; No growth inhibition. The experiment is classed as functional, organism-based.
Experiment [4] relates to Bacillus subtilis. As to the kind of experiment: Effect on Bacillus subtilis in plate diffusion test; ++ indicates Srong well defined clearance zone. The experiment is classed as functional, organism-based.

As usually defined, the MIC is the lowest concentration that inhibits growth of the organism. Higher therefore signals weaker potency. For the molecule `CC(OC(=O)c1ccccc1[N+](=O)[O-])c1cccc2nc3c(C(=O)O)cccc3nc12` (configuration not stated), the Activity entry in the experiment with Bacillus subtilis [1] was “clearance zones”. Also, in the experiment with Bacillus subtilis [2], 2.49 µg/mL (≈ 5.97 µM) was the least that counted as inhibitory (MIC).
`Cc1ccc(C(=O)OC(C)c2cccc3nc4c(C(=O)O)cccc4nc23)c(OCc2ccccc2)c1` (configuration not stated): the Activity entry with Bacillus subtilis [3] is “No growth inhibition”.
As for `CC(OC(=O)c1ccccc1Cl)c1cccc2nc3c(C(=O)O)cccc3nc12` (configuration not stated), in the experiment with Bacillus subtilis [1], the Activity entry is listed as “clearance zones”. Besides, the MIC against Bacillus subtilis [2] was 3.35 µg/mL (≈ 8.23 µM).
As to `Cc1ccc(OCc2ccccc2)c(C(=O)OC(C)c2cccc3nc4c(C(=O)O)cccc4nc23)c1` (configuration not stated), in the experiment with Bacillus subtilis [3], the Activity result is “No growth inhibition”.
As for `CC(OC(=O)c1ccc(F)cc1)c1cccc2nc3c(C(=O)O)cccc3nc12` (configuration not stated), the Activity entry in the experiment on Bacillus subtilis [1] is “clearance zones”. For the same molecule, in the experiment with Bacillus subtilis [2], inhibition of growth (MIC) required 3.93 µg/mL (≈ 10.1 µM).
For the molecule `CC(OC(=O)c1ccccc1F)c1cccc2nc3c(C(=O)O)cccc3nc12` (configuration not stated), the Activity entry in the experiment with Bacillus subtilis [3] is “No growth inhibition”.
In the case of `Cc1cccc(C(=O)OC(C)c2cccc3nc4c(C(=O)O)cccc4nc23)c1OCc1ccccc1` (configuration not stated), the Activity result in the experiment with Bacillus subtilis [1] is “clearance zones”. This molecule had an MIC against Bacillus subtilis [2] of 3.73 µg/mL (≈ 7.57 µM).
The molecule `CC(OC(=O)c1c(Cl)cc(Cl)cc1Cl)c1cccc2nc3c(C(=O)O)cccc3nc12` (configuration not stated) showed an MIC against Bacillus subtilis [2] of 2.1 µg/mL (≈ 4.41 µM). The Activity result in the experiment with Bacillus subtilis [4] was “Srong well defined clearance zone”.
Consider `CC(OC(=O)c1c(F)cccc1F)c1cccc2nc3c(C(=O)O)cccc3nc12` (configuration not stated), for which the Activity entry with Bacillus subtilis [3] was “No growth inhibition”.
On the same count and under the same terms, to `C[S+](C)[O-]` belongs “inactive”.
Consider `CC(OC(=O)c1cccc(Cl)c1)c1cccc2nc3c(C(=O)OC(C)c4cccc5nc6c(C(=O)O)cccc6nc45)cccc3nc12` (configuration not stated), for which the minimal inhibitory concentration (MIC) against Bacillus subtilis [2] was 0.72 µg/mL (≈ 1.1 µM). Further, the Activity entry in the experiment on Bacillus subtilis [4] is listed as “Srong well defined clearance zone”.
`CC(OC(=O)c1cccc(Cl)c1)c1cccc2nc3c(C(=O)O)cccc3nc12` (configuration not stated): the MIC in the experiment with Bacillus subtilis [2] was found to be 0.07 µg/mL (≈ 0.172 µM). Also, the Activity result in the experiment with Bacillus subtilis [4] is listed as “Srong well defined clearance zone”.
Take `CC(OC(=O)c1cccc(F)c1)c1cccc2nc3c(C(=O)O)cccc3nc12` (configuration not stated): in the experiment with Bacillus subtilis [3], the Activity entry was “No growth inhibition”.
`CC(OC(=O)c1c(Cl)cccc1Cl)c1cccc2nc3c(C(=O)O)cccc3nc12` (configuration not stated): the Activity result in the experiment on Bacillus subtilis [1] is “clearance zones”. In addition, 2.71 µg/mL (≈ 6.14 µM) was the least that counted as inhibitory in the experiment with Bacillus subtilis [2] (MIC).
